Twelve compounds from ChEMBL document CHEMBL1201862, “PubChem BioAssay data set” (2004) can be followed below.

What all share (experiment): NCI-60 cell line screen, 48 h
The test system of assay [1] is XF498.
In assay [2] the test system is LXFL 529.
For assay [3], the system named is RXF 631.
Assay [4] has as its system DMS-273.
The subject of assay [5] is M19-MEL.
For assay [6], the system named is KM-20L2.
Assay [7] concerns DMS-114.
The test system of assay [8] is HOP-18.
Assay [9] has as its system BT-549.

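Exposure lasted 48 hours, with cells grown in 96-well plates and compounds tested at five concentrations. The concentration for 50% growth inhibition is given as GI50.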 Activity calls are given as the source filed them. Cut-off read from the data, not from the text of the source: active = GI50 up to about 1.1 µM and inactive = higher.

Consider `CC(C)(c1ccccc1)c1ccc(Oc2ccc3c(c2)-c2nc-3nc3[nH]c(nc4nc(nc5[nH]c(n2)c2ccc(Oc6ccc(C(C)(C)c7ccccc7)cc6)cc52)-c2cc(Oc5ccc(C(C)(C)c6ccccc6)cc5)ccc2-4)c2ccc(Oc4ccc(C(C)(C)c5ccccc5)cc4)cc32)cc1`, for which the GI50 is 78 µM (inactive) in assay [1]; > 100 µM (inactive) in assay [2]; > 100 µM (inactive) in [3]; > 100 µM (inactive) in [4]; > 100 µM (inactive) in [5]; > 100 µM (inactive) in assay [6].
Consider `CN(C)CCONC(=O)C12CC3CC(CC(C3)C1)C2`, for which the GI50 in [1], in assay [2], in [3], in assay [5], in [7] and in assay [6] was > 100 µM (inactive) throughout.
With `CCc1cccc(C(C)CC)c1/N=C(/NC(=O)c1ccccc1C(=O)N/C(=N/c1c(CC)cccc1C(C)CC)SC)SC` (centres undefined), the GI50 is 48.4 µM (inactive) in [1]; 39.9 µM (inactive) in [2]; 51.2 µM (inactive) in assay [3]; 51.4 µM (inactive) in [5]; 28.4 µM (inactive) in [6]; 26.8 µM (inactive) in [8].
With `CCOc1ccccc1NC(=O)C(=O)c1c(O)c2ccc(O)cc2oc1=O`, the GI50 in assay [2], in assay [3], in [4], in assay [5], in [6] and in [8] was > 100 µM (inactive) each time.
For `COc1c(CC(C)=O)ccc2c1C(=O)c1ccc(C=O)c(OC(C)=O)c1C2=O`, the GI50 in assay [2] is 5.53 µM (inactive); in [3] it was 20.6 µM (inactive); in assay [4], 10.2 µM (inactive); in assay [7], 12.8 µM (inactive); in assay [6] it was 14.9 µM (inactive); in [8], 22.1 µM (inactive).
Regarding `CC(=O)N1c2ccccc2N(C(C)=O)C1c1ccc(C2N(C(C)=O)c3ccccc3N2C(C)=O)[nH]1`, the GI50 in assay [1], in assay [2], in [3], in assay [4], in assay [5] and in assay [7] was > 100 µM (inactive) in each case. Moreover, the GI50 in assay [6] is > 100 µM (inactive).
Regarding `Cc1ccc(S(=O)(=O)N/N=C/c2oc(-c3ccncc3)c(-c3ccncc3)c2[N+](=O)[O-])cc1`, the GI50 in [1], in assay [2], in assay [3], in assay [4], in [5] and in assay [6] was > 100 µM (inactive) each time. The GI50 in [8] is > 100 µM (inactive).
As for `CCN1C(=O)C(=CN)C(=O)N(CC)C1=O`, the GI50 in assay [2], in assay [3], in [4], in assay [5], in assay [7] and in [6] was > 100 µM (inactive) throughout. In addition, the GI50 in assay [8] was 24.7 µM (inactive).
Consider `Clc1ccc(OCc2nnc3n2N=C(c2ccc(Br)cc2)CS3)cc1`, for which the GI50 was 4.24 µM (inactive) in assay [1]; 15.2 µM (inactive) in assay [2]; > 10 µM (inactive) in assay [3]; 29.8 µM (inactive) in assay [4]; 23.6 µM (inactive) in assay [5]; 13.1 µM (inactive) in assay [7].
With `COC(=O)CCC(NC(=S)N/N=C(\C)c1ccccn1)C(=O)OC` (centres undefined), the GI50 in assay [1] was > 100 µM (inactive); in assay [2], 40.4 µM (inactive); in assay [3], 34.1 µM (inactive); in assay [5] it was 37.2 µM (inactive); in [7], 20.6 µM (inactive); in [6], 32.4 µM (inactive). Besides, the GI50 in assay [8] was 41.4 µM (inactive).
Take `CCCCC(=O)OCC(=O)[C@]1(O)Cc2c(O)c3c(c(O)c2[C@@H](OC2CC(NC(=O)C(F)(F)F)C(O)C(C)O2)C1)C(=O)c1c(OC)cccc1C3=O` (some centres undefined): the GI50 in [1] is 0.161 µM (active); in [2] it was 0.743 µM (active); in [9], 2.11 µM (inactive); in assay [3], 0.682 µM (active); in assay [4], 0.138 µM (active); in [5], 0.331 µM (active). Further, the figures for the GI50 in assay [7] and in assay [6] were 0.268 µM (active) and 2.19 µM (inactive), respectively.
Regarding `C=CCO[C@H]1CC[C@@]2(C)C(CC[C@]3(C)C2CC=C2[C@@H]4[C@@H](C)C(C)CC[C@]4(C(=O)O)CCC23C)C1(C)C` (some centres undefined), the GI50 in [1] was 7.1 µM (inactive); in assay [2], 12.6 µM (inactive); in assay [3] it was 13.7 µM (inactive); in assay [5], 17.7 µM (inactive); in assay [7], 16.7 µM (inactive); in assay [6] it was 17.3 µM (inactive). For the same compound, the GI50 in assay [8] was 22 µM (inactive).
